Test [1] has as its target BACE1 (Homo sapiens, UniProt P56817). In words: In vitro enzymatic BACE FRET assay. It is filed as biochemical. Conditions: beta secretase enzyme 0.2 nM, FRET substrate 50 nM, pH 4.2; read-out: BACE1 FRET assay (IC50 class). The procedure:
In Vitro Enzymatic BACE FRET (Fluorescence Resonance Energy Transfer) Assay (Enzyme Assay Data in Table 1)
The assay buffer used in this screen is 0.05 M acetate, pH 4.2, 10% DMSO final, 100 uM genapol (which is a nonionic detergent, below its Critical Micelle Concentration). The beta secretase enzyme (0.2 nM) is pre-incubated for one hour with inhibitors, typically in about 1 uL of DMSO according to a serial dilution, are added thereto. The assay is effectively started by the addition of FRET substrate (50 nM) and the combination is incubated for one hour. The FRET assay is terminated with by addition of Tris buffer, which raises the pH to neutrality, and the fluorescence is determined. The FRET substrate is a peptide with commercially available fluorophore and quencher, on opposite sides of the BACE cleavage site. Proteolytic cleavage of the FRET substrate releases quenching of fluorescence (excitation […] and […]).
Of the compounds tested, the in-vitro BACE FRET enzyme data for each of Examples 1-220, where available at the time of filing this application, is provided in Table 1.

In test [2] the test system is Aβ40 in conditioned medium of cells stably expressing Amyloid Precursor Protein (APP). Briefly: In vitro BACE cell-based assay (HEK cell assay), Aβ40 sandwich ELISA. The note with it: Homo sapiens, HEK293, 24 h, inhibition of Aβ40, 24 h incubation, read-out: HEK cell assay (IC50 class). The procedure: In Vitro BACE Cell-Based Assay:
The cell-based assay measures inhibition or reduction of Aβ40 in conditioned medium of test compound treated cells expressing amyloid precursor protein.
Cells stably expressing Amyloid Precursor Protein (APP) were plated at a density of 40K cells/well in 96 well plates (Costar). The cells were cultivated for 24 hours at 37° C. and 5% CO2 in DMEM supplemented with 10% FBS. The test compounds were then added to cells in 10-point dose response concentrations with the starting concentration being either 100 μM or 10 μM. The compounds were diluted from stock solutions in DMSO and the final DMSO concentration of the test compounds on cells was 0.1%. After 24 h of incubation with the test compounds the supernatant conditioned media was collected and the Aβ 40 levels were determined using a sandwich ELISA. The IC50 of the compound was calculated from the percent of control or percent inhibition of Aβ 40 as a function of the concentration of the test compound.
The sandwich ELISA to detect Aβ 40 was performed in 96 well microtiter plates, which were pre-treated with goat anti-rabbit IgG (Pierce). The capture and detecting antibody pair that were used to detect Aβ 40 from cell supernatants were affinity purified pAb40 (Biosource) and biotinylated 6E10 (Signet Labs Inc.), respectively. The optimal concentration for the pAb40 antibody was 3 μg/ml in Superblock/TBS (Pierce) that was supplemented with 0.05% Tween 20 (Sigma). Optimal concentration for the detection antibody 6E10-biotinylated was 0.5 μg/ml in Superblock/TBS (Pierce) that had been supplemented with 2% normal goat serum and 2% normal mouse serum.
Cellular supernatants were incubated with the capture antibody for 3 h at 4° C., followed by 3 wash steps in TBS-tween (0.05%). The detecting antibody incubation was for 2 h at 4° C., again followed by the wash steps as described previously. The final readout of the ELISA is Time-Resolved Fluorescence (counts per minute) using Delfia reagents Streptavidin-Europium and Enhancement solutions (Perkin Elmer) and the Victor 2 multilabel counter (Perkin Elmer).
(In general: ELISA stands for enzyme-linked immunosorbent assay.)

In US8735384B2, “Amino heteroaryl compounds as beta-secretase modulators and methods of use” (Amgen Inc., priority 2010, dated 2014) one finds IC50 data, which are given here for 27 molecules.

Sequence of BACE1 (P56817 46-501, species assumed): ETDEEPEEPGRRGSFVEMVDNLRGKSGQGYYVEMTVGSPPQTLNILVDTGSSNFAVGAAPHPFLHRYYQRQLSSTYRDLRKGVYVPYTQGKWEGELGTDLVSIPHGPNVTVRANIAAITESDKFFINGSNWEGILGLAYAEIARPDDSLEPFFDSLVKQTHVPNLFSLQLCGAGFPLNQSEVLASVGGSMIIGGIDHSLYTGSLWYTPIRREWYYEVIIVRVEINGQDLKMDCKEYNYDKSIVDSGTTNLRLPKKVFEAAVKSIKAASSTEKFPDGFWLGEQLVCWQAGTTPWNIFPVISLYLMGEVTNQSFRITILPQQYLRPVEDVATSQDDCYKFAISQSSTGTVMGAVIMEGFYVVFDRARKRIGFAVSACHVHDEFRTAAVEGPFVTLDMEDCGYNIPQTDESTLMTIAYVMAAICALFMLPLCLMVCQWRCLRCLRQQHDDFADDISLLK

As to `Nc1nc2ccc(-c3cc(Cl)ccc3C(=O)N3CCCC3)cc2cc1N1CCOCC1` [Example 154, (2-(2-amino-3-morpholinoquinolin-6-yl)-4-chlorophenyl)(pyrrolidin-1-yl)methanone], the IC50 in test [1] is less than 100 nM; in test [2] it was 501 to 1000 nM.

In the case of `Cc1cccc(CCC(C)(C)C)c1-c1ccc2nc(N)c(N3CCOCC3)cc2c1` [Example 172, 6-(2-(3,3-dimethylbutyl)-6-methylphenyl)-3-morpholinoquinolin-2-amine], the IC50 was less than 100 nM in test [1] and 1010 to 5000 nM in test [2].

On to `Cc1cccc(C(=O)N2CCC[C@H]2C(F)(F)F)c1-c1ccc2nc(N)c(N3CCOCC3)cc2c1` [Example 94, (S)-(2-(2-amino-3-morpholinoquinolin-6-yl)-3-methylphenyl)(2-(trifluoromethyl)pyrrolidin-1-yl)methanone], for which the IC50 in test [1] fell in the range of 100 to 500 nM; in test [2], 1010 to 5000 nM.

Consider `CCCN(CC)C(=O)c1cccc(C)c1-c1ccc2nc(N)c(N3CCOCC3)cc2c1` [Example 105, 2-(2-amino-3-morpholinoquinolin-6-yl)-N-ethyl-3-methyl-N-propylbenzamide], for which the IC50 was 501 to 1000 nM in test [1] and 1010 to 5000 nM in test [2].

On to `Cc1cccc(N2CCOCC2=O)c1-c1ccc2nc(N)c(N3CCOCC3)cc2c1` [Example 48, 4-(2-(2-amino-3-morpholinoquinolin-6-yl)-3-methylphenyl)morpholin-3-one], for which the IC50 in test [1] lay in the range of 501 to 1000 nM; in test [2] it was 1010 to 5000 nM.

For `COC1CCN(C(=O)c2cccc(C)c2-c2ccc3nc(N)c(N4CCOCC4)cc3c2)CC1` [Example 72, (2-(2-amino-3-morpholinoquinolin-6-yl)-3-methylphenyl)(4-methoxypiperidin-1-yl)methanone], the IC50 was less than 100 nM in test [1] and 1010 to 5000 nM in test [2].

With `C=CCN(CC=C)C(=O)c1cccc(C)c1-c1ccc2nc(N)c(N3CCOCC3)cc2c1` [Example 116, N,N-diallyl-2-(2-amino-3-morpholinoquinolin-6-yl)-3-methylbenzamide], the half-inhibitory concentration (IC50) fell in the range of 100 to 500 nM in test [1] and 1010 to 5000 nM in test [2].

As to `Cc1cccc(C(=O)c2ccccc2)c1-c1ccc2nc(N)c(N3CCOCC3)cc2c1` [Example 2, (2-(2-amino-3-morpholinoquinolin-6-yl)-3-methylphenyl)(phenyl)methanone], the IC50 in test [1] was less than 100 nM; in test [2], 1010 to 5000 nM.

With `Cc1cccc(OCc2ccccc2)c1-c1ccc2nc(N)c(N3CCOCC3)cc2c1` [Example 169, 6-(2-(benzyloxy)-6-methylphenyl)-3-morpholinoquinolin-2-amine], the IC50 in test [1] is less than 100 nM; in test [2] it was more than 5000 nM.

In the case of `Cc1cccc(COc2cc(C(F)(F)F)ccc2Cl)c1-c1ccc2nc(N)c(N3CCOCC3)cc2c1` [Example 208, 6-(2-((2-chloro-5-(trifluoromethyl)phenoxy)methyl)-6-methylphenyl)-3-morpholinoquinolin-2-amine], the half-maximal inhibitory concentration (IC50) is less than 100 nM in test [1] and 100 to 500 nM in test [2].

`Cc1cccc(C(=O)N(C)CC(C)C)c1-c1ccc2nc(N)c(N3CCOCC3)cc2c1` [Example 104, 2-(2-amino-3-morpholinoquinolin-6-yl)-N-isobutyl-N,3-dimethylbenzamide]: the IC50 in test [1] was less than 100 nM; in test [2] it was 501 to 1000 nM.

For `Cc1cccc(C(=O)N(C)C)c1-c1ccc2nc(N)c(N3CCOCC3)cc2c1` [Example 134, 2-(2-amino-3-morpholinoquinolin-6-yl)-N,N,3-trimethylbenzamide], the results for the half-inhibitory concentration (IC50) in test [1] and in test [2] were 100 to 500 nM and 1010 to 5000 nM, respectively.

For `COc1cccnc1C(N)c1cccc(C)c1-c1ccc2nc(N)c(N3CCOCC3)cc2c1` (stereo not drawn) [Example 198, 6-(2-(amino(3-methoxypyridin-2-yl)methyl)-6-methylphenyl)-3-morpholinoquinolin-2-amine], the IC50 in test [1] was 100 to 500 nM; in test [2] it was less than 100 nM.

`Cc1cccc(Oc2ccccc2)c1-c1ccc2nc(N)c(N3CCOCC3)cc2c1` [Example 171, 6-(2-methyl-6-phenoxyphenyl)-3-morpholinoquinolin-2-amine]: the IC50 in test [1] was less than 100 nM; in test [2] it was more than 5000 nM.

On to `Nc1nc2ccc(-c3ccc(F)cc3C(=O)N3CCC3)cc2cc1N1CCOCC1` [Example 128, (2-(2-amino-3-morpholinoquinolin-6-yl)-5-fluorophenyl)(azetidin-1-yl)methanone], for which the figures for the IC50 in test [1] and in test [2] were 1010 to 5000 nM and more than 5000 nM, respectively.

As for `CCCC1CCN(C(=O)c2cccc(C)c2-c2ccc3nc(N)c(N4CCOCC4)cc3c2)CC1` [Example 78, (2-(2-amino-3-morpholinoquinolin-6-yl)-3-methylphenyl)(4-propylpiperidin-1-yl)methanone], the IC50 in test [1] was less than 100 nM; in test [2], more than 5000 nM.

Take `Cc1cccc(C(=O)C2CCCC2)c1-c1ccc2nc(N)c(N3CCOCC3)cc2c1` [Example 184, (2-(2-amino-3-morpholinoquinolin-6-yl)-3-methylphenyl)(cyclopentyl)methanone]: the IC50 in test [1] was less than 100 nM; in test [2], 501 to 1000 nM.

On to `Cc1cccc(C(=O)N(C)C2CCCC2)c1-c1ccc2nc(N)c(N3CCOCC3)cc2c1` [Example 92, 2-(2-amino-3-morpholinoquinolin-6-yl)-N-cyclopentyl-N,3-dimethylbenzamide], for which the figures for the IC50 in test [1] and in test [2] were less than 100 nM and 501 to 1000 nM, respectively.

Turning to `CC(C)(C)CCc1cccc(C(=O)N2CC[C@@H](F)C2)c1-c1ccc2nc(N)c(N3CCOCC3)cc2c1` [Example 47, (R)-(2-(2-amino-3-morpholinoquinolin-6-yl)-3-(3,3-dimethylbutyl)phenyl)(3-fluoropyrrolidin-1-yl)methanone], the IC50 in test [1] and in test [2] was less than 100 nM each time.

As for `Cc1cccc(C(=O)c2ccc(Cl)cc2)c1-c1ccc2nc(N)c(N3CCOCC3)cc2c1` [Example 176, (2-(2-amino-3-morpholinoquinolin-6-yl)-3-methylphenyl)(4-chlorophenyl)methanone], the IC50 in test [1] was less than 100 nM; in test [2], 1010 to 5000 nM.

Consider `Cc1cccc(C(=O)c2cccc(Cl)c2)c1-c1ccc2nc(N)c(N3CCOCC3)cc2c1` [Example 174, (2-(2-amino-3-morpholinoquinolin-6-yl)-3-methylphenyl)(3-chlorophenyl)methanone], for which the IC50 in test [1] is less than 100 nM; in test [2], 1010 to 5000 nM.

As for `Nc1nc2ccc(-c3c(C#Cc4ccccc4)cccc3C(=O)N3CCCC3)cc2cc1N1CCOCC1` [Example 161, (2-(2-amino-3-morpholinoquinolin-6-yl)-3-(phenylethynyl)phenyl)(pyrrolidin-1-yl)methanone], the IC50 in test [1] is less than 100 nM; in test [2], 501 to 1000 nM.

On to `Cc1cccc(Nc2ccccc2)c1-c1ccc2nc(N)c(N3CCOCC3)cc2c1` [Example 55, 6-(2-methyl-6-(phenylamino)phenyl)-3-morpholinoquinolin-2-amine], for which the concentration for half-maximal inhibition (IC50) is 100 to 500 nM in test [1] and more than 5000 nM in test [2].

In the case of `Cc1cccc(C(=O)N2CCCC2)c1-c1ccc2nc(N)c(C3CCCOCC3)cc2c1` (stereo not drawn) [Example 206, (2-(2-amino-3-(oxepan-4-yl)quinolin-6-yl)-3-methylphenyl)(pyrrolidin-1-yl)methanone], the half-maximal inhibitory concentration (IC50) in test [1] was less than 100 nM; in test [2], 100 to 500 nM.

Take `Cc1cccc(C(=O)Nc2ccccc2)c1-c1ccc2nc(N)c(N3CCOCC3)cc2c1` [Example 127, 2-(2-amino-3-morpholinoquinolin-6-yl)-3-methyl-N-phenylbenzamide]: the IC50 in test [1] was 1010 to 5000 nM; in test [2] it was more than 5000 nM.

For the molecule `Nc1nc2ccc(-c3ccccc3C(=O)C3CCCC3)cc2cc1N1CCOCC1` [Example 149, (2-(2-amino-3-morpholinoquinolin-6-yl)phenyl)(cyclopentyl)methanone], the IC50 in test [1] is 100 to 500 nM; in test [2], more than 5000 nM.

As to `Nc1nc2ccc(-c3ccccc3C(=O)N3CCCC3)cc2cc1N1CCOCC1` [Example 146, (2-(2-amino-3-morpholinoquinolin-6-yl)phenyl)(pyrrolidin-1-yl)methanone], the IC50 in test [1] was 100 to 500 nM; in test [2] it was 1010 to 5000 nM.

As a reminder, the IC50 is the concentration that inhibits the measured activity by half.
